Measurements reported in patent US20100286131A1, “VIRAL POLYMERASE INHIBITORS” (BOEHRINGER INGELHEIM INTERNATIONAL GMBH, priority 2007, published 2010).

Tested on: cells expressing a stable subgenomic HCV replicon
Test: Cell-based luciferase reporter HCV RNA replication assay
Details: Hepatitis C virus, inhibition of HCV RNA replication, assay of WO 2005/028501
Description: Cell-Based Luciferase Reporter HCV RNA Replication Assay
Compounds of the invention are tested for activity as inhibitors of hepatitis C virus RNA replication in cells expressing a stable subgenomic HCV replicon, using the assay described in WO 2005/028501, herein incorporated by reference. Table 4 lists representative compounds of the invention with their EC50 values and a comparative non-fluorinated analog wherein the presence of the fluorine atom provided an unexpected improvement in cell-based potency.

| SMILES | EC50 |
| --- | --- |
| Cc1ccc(OCc2cnc(Oc3ccc(N(C(=O)[C@H]4CC[C@H](C)CC4)C(C)C)c(C(=O)O)c3)c(C(F)(F)F)c2)c(C)n1 | 86.5 nM |
| CC(C)N(c1ccc(Cc2ccc(Cn3cccc4ccnc3-4)cc2C(F)(F)F)cc1C(=O)O)C(=O)[C@H]1CC[C@H](C)CC1 | 208 nM |
| CC(C)N(c1ccc(Oc2ncc(Cn3cnnc3)cc2C(F)(F)F)cc1C(=O)O)C(=O)[C@H]1CC[C@H](C)CC1 | 160 nM |
| CC(C)N(c1ccc(Oc2ncc(CN3CCC(F)(F)C3)cc2C(F)(F)F)cc1C(=O)O)C(=O)[C@H]1CC[C@H](C)CC1 | 89 nM |
| CC(C)N(c1ccc(Oc2ccc(Cn3ccc4cccnc43)cc2C(F)(F)F)cc1C(=O)O)C(=O)[C@H]1CC[C@H](C)CC1 | 265 nM |
| CC(C)N(c1cc(F)c(Oc2ncc(Cn3cnnc3)cc2C(F)(F)F)cc1C(=O)O)C(=O)[C@H]1CC[C@H](C)CC1 [Compound 1042] | 47 nM |
| Cc1ccc(OCc2cnc(Oc3cc(C(=O)O)c(N(C(=O)[C@H]4CC[C@H](C)CC4)C(C)C)cc3F)c(C(F)(F)F)c2)c(C)n1 [Compound 1058] | 39.5 nM |
| CC(C)N(c1cc(F)c(Oc2ncc(CN3CCC(F)(F)C3)cc2C(F)(F)F)cc1C(=O)O)C(=O)[C@H]1CC[C@H](C)CC1 [Compound 1101] | 41.5 nM |
| CC(C)N(c1cc(F)c(Oc2ccc(Cn3cccc4ccnc3-4)cc2C(F)(F)F)cc1C(=O)O)C(=O)[C@H]1CC[C@H](C)CC1 [Compound 3016] | 72.5 nM |
| CC(C)N(c1cc(F)c(Oc2ccc(Cn3ccc4cccnc43)cc2C(F)(F)F)cc1C(=O)O)C(=O)[C@H]1CC[C@H](C)CC1 [Compound 3033] | 145 nM |

Tested on: not listed separately
Test: In vitro metabolism in male human liver microsomes (HLM)
Type: in vitro ADME
Details: 1 mg microsomal protein, 2.5 mM NADPH, 2 μM compound, pH 7.4, 37° C.
Description: Male human liver microsomes are purchased from Gentest. The pool consisted of microsomes from several donors. The in vitro metabolism in liver microsomes is carried out in a reaction media containing 1 mg of microsomal protein, 2.5 mM NADPH and 2 μM compound in a total volume of 1 ml of 0.066 M Tris buffer, pH 7.4 for 20 minutes at 37° C. Reactions are initiated by the addition of NADPH and terminated at the appropriate times by quenching with an equal volume of a 1:1 mixture of acetonitrile:methanol.

| HLM | SMILES |
| --- | --- |
| 69 min | CC(C)N(c1ccc(Oc2ncccc2C(F)(F)F)cc1C(=O)O)C(=O)[C@H]1CC[C@H](C)CC1 |
| 29 min | Cc1nc(Cc2ccc(Oc3ccc(N(C(=O)[C@H]4CC[C@H](C)CC4)C(C)C)c(C(=O)O)c3)c(C(F)(F)F)c2)cs1 |
| 136 min | CC(C)N(c1cc(F)c(Oc2ncccc2C(F)(F)F)cc1C(=O)O)C(=O)[C@H]1CC[C@H](C)CC1 [Compound 1011] |
| 129 min | Cc1nc(Cc2cnc(Oc3cc(C(=O)O)c(N(C(=O)[C@H]4CC[C@H](C)CC4)C(C)C)cc3F)c(C(F)(F)F)c2)cs1 [Compound 1072] |
